# Test results taken from patent US9107959B2, “Method for site-specific polyvalent display on polymers” (priority 2006, dated 2015).
# Assay: Cyclic voltammetry (electrochemical analyses)
# Assay type: physicochemical
# Settings: 0.5 mM in water, NaCl 50 mM
# Experimental: Ethynylferrocene (1.05 mg, 5.0 μmol) was dissolved in 10 mL HPLC grade water. NaCl (29.22 mg, 0.5 mmol) was added to the solution as a supporting electrolyte. Similarly, solutions of 10 mL water, 6.3 mg (5.0 μmol) peptoid 13 or 4.8 mg (5.0 μmol) peptoid 14 and 29.22 mg (0.5 mmol) NaCl were prepared. The following techniques were performed identically on 0.5 mM ethynylferrocene (50 mM NaCl), 0.5 mM 13 (50 mM NaCl) or 0.5 mM 14 (50 mM NaCl). Approximately 4 mL of solution was transferred to an electrochemical cell and subjected to cyclic voltammetry (CV) experiments. Cyclic voltammetry was conducted using a CH Instruments 600A Electrochemical Analyzer and CV curves were generated using software developed by CH Instruments. Current (μA) versus Potential (V) was measured across a freshly polished CHI104 3 mm diameter glassy carbon disk working electrode (CH Instruments) with a Ag/AgCl (3 M KCl) reference electrode (CH Instruments) and a Pt wire […] (scan rate=9.0 mV s^−1).
# To test the effect of triazole conjugation on ferrocene redox properties, compound 13 was purified to >96% as determined by RP-HPLC and the electrochemical behavior of ethynylferrocene and 13 were compared using cyclic voltammetry (CV). Additionally, the influence of the estradiol group on the redox potential of the neighboring ferrocene moiety was evaluated by comparing the electrochemical characteristics of 13 with its azido-functionalized precursor 14. CV experiments were carried out at room temperature using previously described methods (Casas-Solvas et al., Org. Lett. 2004, 6, 3687). CV was performed on solutions of ethynylferrocene (0.5 mM), 13 (0.5 mM) or 14 (0.5 mM) prepared in water with NaCl (50 mM) as a supporting electrolyte, using a Ag/AgCl (KCl 3 M) reference electrode, a freshly polished glassy carbon working electrode, and a Pt wire counter electrode with a scan rate of 9.0 mV s^−1. The values of the formal redox potential)(E^o) and the half-peak potential (Ep/2) of ethynylferrocene, 13 and 14 are shown in Table 1. […]
# [1] = glassy carbon working electrode, Ag/AgCl reference, scan rate 9.0 mV s^-1
substance,measurement,setting,value
Ethynylferrocene,Redox behaviour in cyclic voltammograms (ferrocene/ferrocenium),FIG. 5,reversible redox couples
same,Ep/2 (half-peak potential),[1],0.525 V
same,E° (formal redox potential),[1],0.512 V
